Values after ≈ are worked out from the molar mass of the structure shown.
Assays:
[1] = Compound solubility in water; settings: water; for solubility: Compound Solubility in Water
[2] = biological target: T1, glucocerebrosidase (Gcase) (Homo sapiens, UniProt P04062); test: Glucocerebrosidase (Gcase) activation assay, 4-methylumbelliferyl-beta-D-glucopyranoside substrate, fluorescence readout; assay type: biochemical; settings: for activation at 0.1 µM / Percent Gcase Activation, 0.1 μM Test Compound: test compound at 0.1 μM; for activation at 0.1 µM: read-out: Percent Gcase Activation, 0.1 μM Test Compound; for activation at 1 µM: read-out: Percent Gcase Activation, 1 μM Test Compound
T1 construct: micellar solution containing 10 nM GCase and 100 nM saposin C
T1 sequence (P04062 40-536): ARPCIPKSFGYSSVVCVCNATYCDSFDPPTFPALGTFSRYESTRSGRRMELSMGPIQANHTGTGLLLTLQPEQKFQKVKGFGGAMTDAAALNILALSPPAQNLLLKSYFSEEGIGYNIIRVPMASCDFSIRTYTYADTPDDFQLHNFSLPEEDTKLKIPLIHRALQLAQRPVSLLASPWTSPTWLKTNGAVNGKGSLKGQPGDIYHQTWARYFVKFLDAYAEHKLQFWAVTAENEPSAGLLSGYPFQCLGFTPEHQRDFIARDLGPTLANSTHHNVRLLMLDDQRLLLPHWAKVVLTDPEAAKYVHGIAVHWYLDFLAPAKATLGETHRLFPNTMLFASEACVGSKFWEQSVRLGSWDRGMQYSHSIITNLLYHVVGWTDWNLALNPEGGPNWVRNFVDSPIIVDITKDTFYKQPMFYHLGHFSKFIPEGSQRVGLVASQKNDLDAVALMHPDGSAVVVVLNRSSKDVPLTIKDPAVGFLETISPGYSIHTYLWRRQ
Summary of the method: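 10 nM GCase with 100 nM saposin C pre-incubated 30 min with compound in pH 4.7 phosphate/citrate PS/triton micelles, then mixed 1:1 with 2 mM 4-methylumbelliferyl-β-glucoside micellar substrate (stock level). Run 15 min at room temperature, stopped at pH 12.5; fluorescence 365/440 nm. Screened at 1.0 and 0.1 μM; 8-point curves from 5 μM.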

Compound	Compound Solubility in Water [1] [µg/mL]	activation at 0.1 µM [2] [%]	activation at 1 µM ([2]; test compound at 1.0 μM) [%]	Percent Gcase Activation, 0.1 μM Test Compound [2]	Percent Gcase Activation, 1 μM Test Compound ([2]; test compound at 1.0 μM)	solubility [1] [µg/mL]	solubility ([1]; in water) [µg/mL]
Cc1cc(C)n2ccc(C(=O)NC3CCC(c4cccs4)CC3)c2n1 (centres unmarked) [III-187]	0.4	> 20	> 60	–	–	–	–
Cc1cc(C)n2ccc(C(=O)NC3CCC(c4cccs4)CC3)c2n1 (centres unmarked) [III-188]	1.0	–	–	*** (greater than 20% Gcase activation)	+++ (Gcase activation greater than 60%)	–	–
Cc1cc(C)n2ccc(C(=O)N[C@H]3CC[C@@H](Oc4cccs4)CC3)c2n1 [III-189]	–	> 20	> 60	–	–	1 (≈ 2.71 µM)	–
Cc1cc(C)n2ccc(C(=O)N[C@H]3CC[C@H](Oc4cccs4)CC3)c2n1 [III-190]	–	10 to 20	> 60	–	–	4.2 (≈ 11.4 µM)	–
Cc1cc(C)n2ccc(C(=O)NC3Cc4ccc(-c5cscn5)cc4C3)c2n1 (centres unmarked) [III-192]	–	> 20	> 60	–	–	0.01 (≈ 0.0257 µM)	–
Cc1cc(C)n2ccc(C(=O)NC3CCCc4cccnc43)c2n1 (centres unmarked) [III-193]	–	< 10	< 30	–	–	27.2 (≈ 84.9 µM)	–
C#CCCCO[C@H]1CC[C@H](NC(=O)c2ccn3c(C)cc(C)nc23)CC1 [III-194]	–	10 to 20	> 60	–	–	4.5 (≈ 12.7 µM)	–
Cc1cc(C)n2ccc(C(=O)NC3CCOc4cccc(F)c43)c2n1 (centres unmarked) [III-195]	–	> 20	> 60	–	–	7 (≈ 20.6 µM)	–
Cc1cc(C)n2ccc(C(=O)NC3CCOc4cc(F)ccc43)c2n1 (centres unmarked) [III-196]	–	10 to 20	> 60	–	–	4.2 (≈ 12.4 µM)	–
CCCOCCO[C@H]1CC[C@H](NC(=O)c2ccn3c(C)cc(C)nc23)CC1 [III-197]	–	< 10	30 to 60	–	–	16.9 (≈ 45.2 µM)	–
CCCCO[C@H]1C[C@H](NC(=O)c2ccn3c(C)cc(C)nc23)C1 [III-198]	–	10 to 20	> 60	–	–	13.1 (≈ 41.5 µM)	–
Cc1cc(C)n2ccc(C(=O)NC3CCC(C4CCCO4)CC3)c2n1 (centres unmarked) [III-199]	–	< 10	30 to 60	–	–	12.3 (≈ 36 µM)	–
Cc1cc(C)n2ccc(C(=O)NC3CCC(C4CCCO4)CC3)c2n1 (centres unmarked) [III-200]	12.4	–	–	* (less than 10% Gcase activation)	–	–	–
CCCCCO[C@H]1CC[C@H](NC(=O)c2ccn3c(C)cc(C)nc23)CC1 [III-201]	–	> 20	> 60	–	–	0.5 (≈ 1.4 µM)	–
CCCCCO[C@H]1CC[C@@H](NC(=O)c2ccn3c(C)cc(C)nc23)CC1 [III-202]	–	> 20	> 60	–	–	–	3.6 (≈ 10.1 µM)
CCCCCN(C)C(=O)[C@H]1CC[C@H](NC(=O)c2ccn3c(C)cc(C)nc23)CC1 [III-203]	–	< 10	30 to 60	–	–	–	17 (≈ 42.7 µM)
CCC(F)(F)CN1CCC(NC(=O)c2ccn3c(C)cc(C)nc23)CC1 [III-204]	–	< 10	< 30	–	–	–	21.1 (≈ 57.9 µM)
CCC(F)(F)CN1CCC(NC(=O)c2ccn3c(C)cc(C)nc23)C1 (centres unmarked) [III-205]	–	< 10	< 30	–	–	–	21.3 (≈ 60.8 µM)
Cc1cc(C)n2ccc(C(=O)N[C@H]3CC[C@H](Oc4cccnc4)CC3)c2n1 [III-206]	–	< 10	< 30	–	–	–	4.1 (≈ 11.2 µM)
Cc1cc(C)n2ccc(C(=O)NC3CCOc4ccc(-c5ncco5)cc43)c2n1 (centres unmarked) [III-207]	–	< 10	30 to 60	–	–	–	1 (≈ 2.57 µM)
C#CCCCCO[C@H]1CC[C@H](NC(=O)c2ccn3c(C)cc(C)nc23)CC1 [III-208]	–	> 20	> 60	–	–	–	0.8 (≈ 2.18 µM)
